{"source": "patent EP3492086B1", "about": "“PHARMACEUTICAL COMPOSITION COMPRISING ZEBULARINE (1-(BETA-D-RIBOFURANOSYL)-2(1H)-PYRIMIDINONE) FOR USE IN PROMOTING REGENERATION AND WOUND HEALING” (Uniwersytet Gdanski, priority 2017, dated 2019)", "key": {"laboratory mice": {"system": "laboratory mice", "conditions": "GM284 topical delivery (US2009/0093528A1); XAV-939 (Bastakoty et al. 2015); 1,4-DPCA (Zhang et al. 2015); cited from earlier work"}, "mice": {"system": "mice", "conditions": "400 mg/kg body weight intraperitoneally for 78 consecutive days (Herranz et al. 2006); cited from earlier work"}, "[1]": {"conditions": "estimated (Ben-Kasus et al. 2005); cited from earlier work"}, "[2]": {"system": "Cdkn2a, Msx1, Nanog, Sox2, Bdnf, Sox1, Nog, and Myt1l", "test": "Expression of pluripotency, developmental and cell cycle genes in the injury/repair area (real-time PCR)", "type": "in vivo", "conditions": "day 7 after injury; zebularine treated versus control mice; most remarkable for Nanog and Sox2", "text": "In order to determine the effect of zebularine on the expression of pluripotency, developmental and cell cycle genes, the transcript levels for a panel of selected genes including Cdkn2a, Msx1, Nanog, Sox2, Bdnf, Sox1, Nog, and Myt1l were examined in the injury/repair area, in zebularine treated and control mice at the day 7, 14, 21 and 42 following injury in addition to unwounded ear pinnae designated as day 0. For the purpose, the ear punched mice were sacrificed at selected time points, the ears were collected on RNAlater reagent (Qiagen), stored at -80 °C until the rings surrounding the holes were excised using a 3 mm biopsy punch, following RNA extraction from thus obtained tissues using RNeasy kit (Qiagen). The levels of selected transcripts were determined for 6 mice (8 ears) for each time point using real-time PCR quantitation and Tbp and Actb as the reference genes. […] The most remarkable changes were found for the pluripotency genes, Nanog and Sox2 (Figure 7)."}, "5-methylcytosine": {"system": "5-methylcytosine", "test": "Global DNA methylation in the injury/regeneration area (5-mC DNA ELISA)", "type": "in vivo, mice", "conditions": "day 7 following injury; zebularine treated versus control", "text": "DNA methylation in promoter regions is one of key epigenetic mechanisms responsible for gene repression. In order to determine the zebularine demethylating effect on DNA in the regenerating tissues, the content of 5-methylcytosine was compared in the tissues collected from the rings surrounding the ear pinnae holes in the zebularine treated and control animals. For the purpose, the ear punched zebularine treated and control mice were sacrificed at the days 7, 14, 21, and 42 after injury. The ears were collected, and the rings surrounding the holes were excised with a 3 mm biopsy punch, following genomic DNA extraction from thus obtained tissues using DNeasy kit (Qiagen). The levels of 5-methylcytosine were estimated using 5-mC DNA ELISA Kit (ZYMO, D5325) in 100 ng aliquots of genomic DNA."}, "[3]": {"conditions": "37°C, pH 7.4 (Cheng et al. 2003); cited from earlier work"}, "[4]": {"system": "dorsal skin wounds, mice of the BALB/c strain", "test": "Dorsal skin excision model, topical delivery, wound closure", "type": "in vivo", "procedure": "The effect of topically delivered zebularine on wound healing was determined using the dorsal skin excision model. Six 2-month-old female mice of the BALB/c strain were used for the experiment. Prior to the injury, the mice were anaesthetized. The dorsal skin was shaved and disinfected. Two symmetrical full-thickness excisional wounds were made in the dorsum using a biopsy punch of 6 mm diameter. Ten microliter of zebularine suspension (200 mg per 1 ml of saline) was dropped directly onto the wound immediately after wounding and once daily for the next four days. Promptly after zebularine application, the wounds were covered with a transparent dressing, and next, the dressing was fastened with adhesive plaster wrapped around the mouse. An analogical experiment was performed for six mice of control group that were not treated with zebularine. The animal study protocol was approved by the Local Ethics Committee for Animal Experimentation at the University of Science and Technology in Bydgoszcz, Poland (Permit No. 49/2016).\nThe wounds were photographed on the day of injury (d0) and on the day 2, 4, 7, 9, 11, 14, and 18 after wounding. The wound closure progress was tracked by determining wound area using computer-assisted image analysis. […] Complete wound closure was observed on the day 11 for zebularine treated mice and on the day 18 for the control ones (Figure 13)."}, "[5]": {"system": "ear pinnae of the BALB/c 2-month-old female mice", "test": "Ear pinnae hole closure (ear pinnae injury model, 2 mm through-and-through holes)", "type": "in vivo", "procedure": "In order to evaluate the regenerative effect of zebularine, through-and-through holes of 2 mm diameter were made in the ear pinnae of the BALB/c 2-month-old female mice using scissor style ear punch. The mice were randomly divided into two groups consisting of six individuals each. The mice of one group were intraperitoneally injected with 7 doses of zebularine dissolved in saline (50 mg/ml), 1000 mg/kg body weight, on the day of injury directly after punching, and 1, 2, 3, 4, 7, 10 days after injury. The second, control group, was administered with saline.\nThe experiment was repeated 8 times. Collectively, the experiment was performed for 47 zebularine treated and 48 saline (vehiculum) administered control mice. […] The mean ear hole areas determined on the day 42 post injury were 0.53+/-0.3 and 1.77+/-0.48 sq mm for zebularine treated and saline controls, respectively. The results expressed as percentage of wound closure correspond to 83.2% and 43.6% for the zebularine treated and control group, respectively (Figure 2).The timeline of regeneration process is presented in Figure 3. […] The distributions of ear hole areas on the day 42 after injury were plotted as dot diagrams, where each dot represents an individual ear (Figure 4). The diagrams not only show the biological variation in response to injury and zebularine treatment but clearly expose the contrast between the control and zebularine treated groups. […]"}}}
{"smiles": "CCC(C)(C)C(=O)C(=O)N1CCC[C@H]1c1nnc([C@@H]2CCCN2C(=O)C(=O)C(C)(C)CC)o1", "note": "[GM284]", "values": [{"measurement": "ear hole closure reported in the literature (result in words)", "setting": "laboratory mice", "value": "Ear hole closure"}]}
{"smiles": "O=C(O)c1c[nH]c2c(ccc3cccnc32)c1=O", "note": "[1,4-DPCA, 4-oxo-1H-1,10-phenanthroline-3-carboxylic acid]", "values": [{"measurement": "ear hole closure reported in the literature (result in words)", "setting": "laboratory mice", "value": "partial ear hole closure induction"}]}
{"smiles": "Oc1nc(-c2ccc(C(F)(F)F)cc2)nc2c1CSCC2", "note": "[XAV-939]", "values": [{"measurement": "ear hole closure reported in the literature (result in words)", "setting": "laboratory mice", "value": "partial ear hole closure induction"}]}
{"smiles": "O=c1ncccn1[C@@H]1O[C@H](CO)[C@@H](O)[C@H]1O", "note": "[zebularine, 1-(β-D-ribofuranosyl)-2(1H)-pyrimidinone]", "values": [{"measurement": "toxic effects in mice", "setting": "mice", "value": "No toxic effects"}, {"measurement": "RNA incorporation relative to DNA incorporation", "setting": "[1]", "value": 7, "unit": "fold"}, {"measurement": "expression of the selected transcripts in the injury/repair area", "setting": "[2]", "value": "Significantly enhanced expression"}, {"measurement": "DNA methylation (5-methylcytosine content) in the injury/regeneration area", "setting": "5-methylcytosine", "value": "significant decrease in DNA methylation"}, {"measurement": "half-life in water", "setting": "[3]", "value": 21.2, "unit": "days"}, {"measurement": "decrease of the time of wound closure", "setting": "[4]; 10 microliter of 200 mg/ml suspension after wounding and once daily for four days, 6 mm wounds", "value": "approximately 7 days"}, {"measurement": "day of complete wound closure", "setting": "[4]; 10 microliter of 200 mg/ml suspension, five applications, control day 18", "value": 11, "unit": "days"}, {"measurement": "mean ear hole areas determined on the day 42 post injury", "setting": "[5]; 1000 mg/kg body weight intraperitoneally, 7 doses (day 0, 1, 2, 3, 4, 7, 10), 47 mice, saline control 1.77+/-0.48", "value": "0.53+/-0.3 sq mm"}, {"measurement": "day after injury of maximal ear hole closure", "setting": "[5]; 1000 mg/kg i.p., 7 doses", "value": 35, "unit": "days"}, {"measurement": "day after injury from which significantly better ear hole closure was recorded", "setting": "[5]; 1000 mg/kg i.p., 7 doses, versus saline control", "value": 21, "unit": "days"}, {"measurement": "percentage of wound closure (ear hole closure area)", "setting": "[5]; day 42 after injury, 1000 mg/kg i.p., 7 doses, control group 43.6%", "value": 83.2, "unit": "%"}, {"measurement": "time to almost complete closure of the ear pinnae hole", "setting": "[5]; representative mouse, 1000 mg/kg i.p., 7 doses (Figure 1)", "value": "approximately 30 days"}, {"measurement": "effect of subcutaneous delivery on ear pinnae hole closure", "setting": "[5]; subcutaneous injections, 1000 mg/kg, 7 doses, day 42 (Figure 6)", "value": "statistically significant response but proved less effective than intraperitoneal delivery"}]}
{"smiles": "CC1=C(/C=C/C(C)=C/C=C/C(C)=C/C(=O)O)C(C)(C)CCC1=O", "note": "[4-keto RA, 4-keto retinoic acid, reference compound]", "values": [{"measurement": "ear hole closure (result in words)", "setting": "[5]; Example 4: i.p., zebularine 1000 mg/kg 7 times, RA or 4-keto RA 16 mg/kg 6 times, followed for 42 days", "value": "Partial ear hole closure"}]}
{"smiles": "Nc1ncn([C@@H]2O[C@H](CO)[C@@H](O)[C@H]2O)c(=O)n1", "note": "[5-azacytidine, reference compound]", "values": [{"measurement": "effect on ear hole closure (result in words)", "setting": "[5]; 0.25 mg/kg body weight i.p., 7 times, day 42, 6 mice, compared with zebularine and saline", "value": "did not stimulate ear hole closure"}]}
